Laboratory results: PMC7616177, “From structure to clinic: Design of a muscarinic M1 receptor agonist with the potential to treat Alzheimer’s disease” (Cell, 2021)
pKi: −log10 of the molar value.

Columns and labels:
panel of 62 GPCRs = test: DiscoverX neurological and psychiatric GPCR selectivity panel; format: cell-based; conditions: 10 μM
healthy volunteers [1] = test: Clinical EEG/ERP P300 active auditory oddball paradigm; format: in vivo; conditions: human multiple dosing, high exposure group, day 9
Protocol: Routine EEG was performed for all subjects during screening enrolled in the multiple ascending dose study to avoid enrolling subjects showing clinically significant abnormalities. 19-lead EEG recordings were employed for quantitative (qEEG) analyses. qEEGs were are recorded in resting state with alternating 30 s eyes open and 30 s eyes closed for 5 min first and then about 5 min eyes closed. The P50 protocol employed a series of “click pairs.” The interval between click pairs is at random between 6 to 10 s (Stimuli S1 and S2, 1000 Hz, duration 3 ms, 80 dB sound pressure level [SPL], stimulus onset asynchrony [SOA] = 500 ms, The MMN protocol used twelve different frequencies ranging in 50 Hz steps from 700 to 1250 Hz delivered binaurally via special headphones or earphones. All stimuli were presented with a constant SOA of 300 ms in a pseudo-randomized order assuming a frequency deviation of one train to another of at least 100 Hz with three different lengths/durations of series which occurred evenly. For the P300 active auditory oddball paradigm sinusoidal tones of 90 dB SPL intensity and 50 ms duration were delivered binaurally in an inter-stimulus-interval of 1000 msec. The standard stimulus, a low frequency tone (1000 Hz) appeared with a frequency of 85%. […]

human M1 receptor = molecular target: T1, human M1 receptor (Homo sapiens, UniProt P11229); test: [3H]-NMS equilibrium radioligand binding, M1
T1 construct: expressed in transfected cells
T1 sequence (P11229 1-460): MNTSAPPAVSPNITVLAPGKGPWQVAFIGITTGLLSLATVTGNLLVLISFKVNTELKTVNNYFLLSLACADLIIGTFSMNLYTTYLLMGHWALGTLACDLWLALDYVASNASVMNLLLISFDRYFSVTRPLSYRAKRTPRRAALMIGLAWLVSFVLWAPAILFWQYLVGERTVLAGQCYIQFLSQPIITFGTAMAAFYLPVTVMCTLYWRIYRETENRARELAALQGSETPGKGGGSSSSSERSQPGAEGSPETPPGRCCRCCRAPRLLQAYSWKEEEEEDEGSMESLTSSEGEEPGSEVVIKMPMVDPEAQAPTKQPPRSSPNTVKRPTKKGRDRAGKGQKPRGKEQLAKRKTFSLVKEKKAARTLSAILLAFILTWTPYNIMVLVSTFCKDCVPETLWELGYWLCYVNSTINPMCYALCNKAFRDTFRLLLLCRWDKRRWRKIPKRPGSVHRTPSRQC
Protocol: Non-specific binding (NSB) was determined in the presence of 1 μM atropine). Reactions were terminated by rapid filtration onto GF/B filter paper (Whatman, Maidstone, UK) and three washes with 3 mL ice-cold 0.9% NaCl using a Brandel harvester (M-24TI; Brandel, Fort Lauderdale, FL). Membrane bound radioactivity was determined by liquid scintillation (Ultima Gold; PerkinElmer) counting.
Data was analyzed using PRISM (GraphPad). For saturation binding, non-specific and total binding data were analyzed to a one site binding model. DPM was converted to fmol/mg to compare across constructs. […] […] The Cheng Prusoff equation was used to estimate pKi ([Cheng and Prusoff, 1973]).

healthy volunteers [2] = test: First-time-in-human single ascending dose safety; format: in vivo
Description: (§1) HTL9936 was progressed into a randomized, double blind, placebo controlled, first time-in-human (FTIH) ascending single and multiple oral dose study in healthy young adult male volunteers and healthy elderly male and female volunteers. (ClinicalTrials.gov Identifier: NCT02291783).
(§2) The required amount of sterile solution was subsequently injected into the infusion bag containing sodium chloride 0.9%w/v infusion fluid to provide the required dose for IV administration.

[3] = First-time-in-human single ascending dose safety; format: in vivo; conditions: plasma, oral, 175 mg; human SAD; read-out: Cmax at which cholinergic side effects were recorded
Description: as §1, §2

Structure (SMILES): CCOC(=O)N1CCC[C@H](N2CCC(C(=O)NC3(C)CCC3)CC2)CC1 [HTL9936, ethyl (S)-4-(4-((1-methylcyclobutyl)carbamoyl)piperidin-1-yl)azepane-1-carboxylate]
- Agonism at other receptors (panel of 62 GPCRs): < 25%
- P300 deviant amplitude at electrodes Fz and Cz (healthy volunteers [1]): significant within- and between-group effects for deviant amplitude
- pKi (human M1 receptor): 4.70
- Subjects with mild cholinergic responses (salivation, sweating, blood pressure/heart rate changes) (healthy volunteers [2]; human SAD, 175 mg cohort): 3/5
- Serious adverse events leading to withdrawal (healthy volunteers [2]; human SAD, 1−100mg oral): no serious adverse events
- Margin of 242 ng/mL over plasma minimal effective concentration in aged beagle DNMP (healthy volunteers [2]; human vs dog 58 ng/mL): about 5 ×
- Estimated unbound brain exposure at plasma Cmax of 242 ng/mL (healthy volunteers [2]; human, from CSF to plasma ratios 1 to 3 h): 72 to 259 nM
- Cmax [3]: 242 ng/mL
